The results in this text go back to patent US7267994B2, “Element-coded affinity tags” (Regents of the University of California, priority 2003, dated 2007).

Assay [1] has as its system antibody 2D12.5. Briefly: relative binding curves of 2D12.5 for Y-DOTA isomers and side chain variants. On the set-up: species or system murine. The note with it: for relative binding affinity for 2D12.5, isomers: coordinated metal Y^3+, FIG. 15; for relative binding affinity for 2D12.5, side chain location: Y-DOTA molecule with different side chain locations, FIG. 6. From the text:
FIG. 6 is a graphical display showing the relative binding curves of an exemplary metal chelate, the Y-DOTA molecule, with different side chain locations. […] Evaluation of the crystal structure seems to indicate that shorter substitutions at this position may bind with higher affinity. Substitutions at other locations may yield reasonably high affinities as well. The (5-Amino-2-methoxy-phenyl)-carboxymethyl)-DOTA analyzed in this experiment was racemic, so it is not clear which isomer binds with higher affinity. The low pKa of the carboxymethyl proton makes it difficult to prepare a chirally pure molecule.
FIG. 15 is a graphical display showing the relative binding curves of 2D12.5 for Y-DOTA isomers and Y-DTPA. 2D12.5 binds both the (R)- and (S)- isomers of 2-(4-nitrobenzyl)-DOTA when the coordinated metal is Y^3+ (the same behavior is expected for the other rare earths). The (S)-isomer confers Λ-helicity, while the (R)-isomer confers Δ-helicity to the acetate arms. […] Y-DOTA (no-sidearm) exists is solution as a racemic mixture of the coordination isomers.

Assay [2] has as its system antibody 2D12.5. The experiment in a line: competitive immunoassay (ELISA) of metal-DOTA complexes relative to Y-DOTA. It counts as binding, murine. To be noted: metal complexes of [S]-2-(p-nitrobenzyl)-DOTA, 37° C. From the text: FIG. 13 is graphical display showing the relative binding of metal-DOTA complexes to antibody 2D12.5. A representative set of competitive binding curves obtained from ELISA experiments described in Example 3 below. Error bars (representing the standard error of the mean) are shown, but are generally smaller than the data points.
To determine the metal selectivity of the antibody 2D12.5, a competitive immunoassay was used to measure the binding constants of multiple metal-DOTA complexes relative to Y^3+-DOTA.
We examined the monoclonal antibody 2D12.5, initially developed to bind specifically to Y-DOTA for targeted radiotherapy (see, e.g., Goodwin et al., Cancer Res. 54: 5937-5946 (1994)), in order to determine the scope of its activity. To assess the metal selectivity of antibody 2D12.5, a competitive immunoassay to measure the binding constants of various metal-DOTA complexes relative to the original Y^3+ complex was developed (FIG. 13). Briefly, 2D12.5 was incubated at 37° C. in the presence of immobilized Y-DOTA and a soluble metal-DOTA competitor. The metal-DOTA concentration was varied from μM to pM in order to determine the relative binding affinity of 2D12.5 for each metal chelate in comparison to Y-DOTA. Binding was measured by standard methods known to those of skill in the art. […]
Target sequence in this assay (as listed by the source): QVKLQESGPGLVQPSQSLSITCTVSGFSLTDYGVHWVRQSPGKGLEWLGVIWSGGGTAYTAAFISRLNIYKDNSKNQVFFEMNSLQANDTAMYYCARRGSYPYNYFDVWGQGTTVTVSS
Target sequence in this assay (as listed by the source): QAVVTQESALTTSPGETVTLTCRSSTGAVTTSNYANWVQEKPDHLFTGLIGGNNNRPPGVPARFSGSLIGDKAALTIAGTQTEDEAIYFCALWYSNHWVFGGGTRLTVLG
In general terms: In an ELISA, binding on a coated surface is turned into a signal by an enzyme label.

In the case of `O=C(O)CN1CCN(CC(=O)O)CCN(CC(=O)O)C(Cc2ccc([N+](=O)[O-])cc2)CN(CC(=O)O)CC1` (single isomer, unassigned; isomer 2) [(R)-isomer, 2-(4-nitrobenzyl)-DOTA], the “relative binding affinity for 2D12.5, isomers” value in the assay on antibody 2D12.5 [1] is “affinity decreases less than an order of magnitude”.

As to `O=C(O)CN1CCN(CC(=O)O)CCN(CC(=O)O)[C@@H](Cc2ccc([N+](=O)[O-])cc2)CN(CC(=O)O)CC1` [(S)-2-(4-nitrobenzyl)-DOTA, (S)-2-(4-nitro-benzyl)-1,4,7,10-tetraazacyclododecane-N,N′,N″,N′″-tetraacetic acid], in the assay with antibody 2D12.5 [1], the “relative binding affinity for 2D12.5, side chain location” value was “clearly stronger” and the “relative binding affinity for 2D12.5, isomers” value is listed as “preferred isomer for binding”.

As to “(5-Amino-2-methoxy-phenyl)-carboxymethyl)-DOTA”, the “relative binding affinity for 2D12.5, side chain location” value in the assay with antibody 2D12.5 [1] is on record as “still sufficiently strong”.

On to Gd-DOTA, for which the results for the “binding to 2D12.5 compared with the Y^3+ complex” value in the assay on antibody 2D12.5 [2] and in the assay with antibody 2D12.5 [2] (listed as Gd^3+) were “bind more tightly than the original Y^3+ complex” and “strongest binders”, respectively.
